Where two headings read alike, the source gives them in different places.
Columns and labels:
TRPM7 [1] = target: T1, TRPM7 (Mus musculus, UniProt Q923J1); design: host or cells: TRPM7-HEK293 and CHOK1-TRPM7 cells as reported earlier; details: cited from earlier work
murine TRPM7 = murine TRPM7 (Mus musculus, UniProt Q923J1); details: for dose dependence of inhibition of TRPM7-mediated fura-2 quench by Mn2+: serial dilutions, 15 min pre-incubation
Protocol: Wild type (non-transfected) human embryonic kidney (WT-HEK293) cells and tetracycline-inducible HEK293 cells, stably transfected with a FLAG-murine TRPM7/pcDNA4/TO construct (TRPM7-HEK293), were cultured in a humidified incubator, at 37° C. and 5% CO2, in DMEM supplemented with 10% FBS and 2 mM L-glutamine. Wild type HEK293 culture medium was supplemented with 100 U/mL penicillin and 0.10 mg/mL streptomycin. TRPM7-HEK293 culture medium was supplemented with 5 μg/mL blasticidin and 0.4 mg/mL zeocin.
TRPM7 channel conductance was monitored using a FlexStation 3 scanning fluorometer (Molecular Devices, Sunnyvale, Calif.) to monitor the Ca^2+-independent (360 nm excitation/510 nm emission) fura-2 quench by Mn^2+ in TRPM7 overexpressing HEK293 cells. The FlexStation 3 measured the fluorescent signal intensity in relative fluorescence units (RFU), at 1.5 s intervals for 60 s using a beam diameter of 1.5-2.0 mm. Following baseline measurements, Mn^2+ was added extracellularly and changes in cytosolic [Mn^2+] were monitored as the loss of relative fluorescence caused by fura-2 quenching. TRPM7-HEK293 cells (30,000, 60,000 or 120,000 cells/well) were plated in poly-L-lysine coated, black clear-bottom 96-well plates (Greiner Bio-One, Monroe, N.C.). Subsequent TRPM7-expression was induced 2-3 h post plating by the addition of 1 μg/mL tetracycline. The culture medium was completely removed at 16-18 h post induction and replaced with the following fura-2 loading-buffer: KRH buffer supplemented with 2 μM fura-2-AM, with or without 2 mM probenecid, and with or without 0.1-0.3% pluronic F-127. Following variable incubation times (30, 45 and 60 min at 25 or 37° C.) the loading buffer was removed and replaced with assay buffer (KRH). The plates were then transferred to a room temperature (25° C.) or pre-warmed (37° C.) FlexStation which also contained a clear V-bottom 96-well compound plate (Greiner Bio-One) with vehicle or appropriate test substance solutions diluted with KRH. Cells were initially incubated for 15 min with the appropriate test substance solutions. Just prior to the addition of 1 or 10 mM MnCl2 the baseline fluorescence was recorded for 20 s. The Ca^2+-independent, TRPM7-mediated fura-2 quench by Mn^2+ was then recorded for 40 s.
Fluorescence data was collected in SoftMax Pro (Molecular Devices) and processed in Microsoft Excel 2007. Replicate fluorescence traces (time vs. intensity) were averaged and the Z′-factors were calculated. Mean, standard deviation (sdev), and Z′-factors at each time point were plotted using IGOR PRO (Wavemetrics). […] These values were background-corrected (WT-HEK293 signal subtracted) and normalized to vehicle controls.
TRPM7-HEK293 cells and HEK293 cells were plated at 60,000 cells/well. Cells were incubated at 37° C. for 60 min with KRH containing 2 mM probenecid, 0.1% pluronic F-127, and 2 μM fura-2-AM. After a wash step, the cells were pre-incubated with LaCl3 (serial diluted 2:1 from 7.0 mM to 9.6 μM) or 2-APB (serial diluted 2:1 from 500-0.69 μM) at 37° C. for 15 min during baseline measurements.

TRPM7 [2] = target: T1, TRPM7; test: Whole-cell patch-clamp of TRPM7 currents in HEK293-TRPM7; type: cell-based; design: FLAG; expressed in transfected cells; host or cells: tetracycline-inducible HEK293 cells (pcDNA4/TO vector); details: for IC50: read-out: IC50, inhibition of TRPM7 currents
Protocol: Error bars represent S.E.M. Corresponding I/V relationships are representative currents in response to voltage ramps obtained at 500 s. […] Currents were extracted at +80 mV at 500 s, normalized to the maximal current amplitude before application (200 s), plotted against waixenicin A concentration, and approximated by dose-response fit function (n=8-10). […] Same analysis as in FIG. 9A. Error bars represent S.E.M.
Patch-clamp experiments were performed in the whole-cell configuration at 24° C. All data were acquired with PatchMaster (HEKA) software controlling an EPC-9 amplifier (HEKA, Lambrecht, Germany) and analyzed using FitMaster (HEKA) and IGOR PRO (Wavemetrics, USA). Voltage ramps of 50 ms spanning from −100 to +100 mV were delivered from a holding potential of 0 mV at a rate of 0.5 Hz. Voltages were corrected for liquid junction potentials (10 mV). Currents were filtered at 2.9 kHz and digitized at 100 μs intervals. Current amplitudes were extracted at +80 mV and −80 mV for analysis and display.
To activate TRPM7 currents, intracellular Mg^2+ and Mg-ATP were washed out by perfusion with Mg^2+- and ATP-free internal solution. Whole-cell currents were elicited by voltage ramps from −100 to +100 mV delivered at 0.5 Hz and current amplitudes were extracted at +80 mV and plotted versus time of the experiment. […] The corresponding current-voltage (I/V) relationships are illustrated by representative ramp currents extracted at 500 s. […] Outward and inward TRPM7 currents responded in a similar manner to waixenicin A treatment (FIG. 10A), resulting in the same IC50.
To better mimic physiologic conditions, we clamped the intracellular solution to 700 μM free internal Mg^2+ and only omitted Mg-ATP to achieve TRPM7 activation. […] The corresponding I/V relationships are illustrated by representative ramp currents.

[3] = read-out: IC50, inhibition of the TRPM7-mediated fura-2 quench by Mn2+, TRPM7-HEK293, 15 min pre-incubation at 37° C., 10 mM MnCl2, endpoint 10 s after MnCl2 addition

T1 sequence (Q923J1 whole entry): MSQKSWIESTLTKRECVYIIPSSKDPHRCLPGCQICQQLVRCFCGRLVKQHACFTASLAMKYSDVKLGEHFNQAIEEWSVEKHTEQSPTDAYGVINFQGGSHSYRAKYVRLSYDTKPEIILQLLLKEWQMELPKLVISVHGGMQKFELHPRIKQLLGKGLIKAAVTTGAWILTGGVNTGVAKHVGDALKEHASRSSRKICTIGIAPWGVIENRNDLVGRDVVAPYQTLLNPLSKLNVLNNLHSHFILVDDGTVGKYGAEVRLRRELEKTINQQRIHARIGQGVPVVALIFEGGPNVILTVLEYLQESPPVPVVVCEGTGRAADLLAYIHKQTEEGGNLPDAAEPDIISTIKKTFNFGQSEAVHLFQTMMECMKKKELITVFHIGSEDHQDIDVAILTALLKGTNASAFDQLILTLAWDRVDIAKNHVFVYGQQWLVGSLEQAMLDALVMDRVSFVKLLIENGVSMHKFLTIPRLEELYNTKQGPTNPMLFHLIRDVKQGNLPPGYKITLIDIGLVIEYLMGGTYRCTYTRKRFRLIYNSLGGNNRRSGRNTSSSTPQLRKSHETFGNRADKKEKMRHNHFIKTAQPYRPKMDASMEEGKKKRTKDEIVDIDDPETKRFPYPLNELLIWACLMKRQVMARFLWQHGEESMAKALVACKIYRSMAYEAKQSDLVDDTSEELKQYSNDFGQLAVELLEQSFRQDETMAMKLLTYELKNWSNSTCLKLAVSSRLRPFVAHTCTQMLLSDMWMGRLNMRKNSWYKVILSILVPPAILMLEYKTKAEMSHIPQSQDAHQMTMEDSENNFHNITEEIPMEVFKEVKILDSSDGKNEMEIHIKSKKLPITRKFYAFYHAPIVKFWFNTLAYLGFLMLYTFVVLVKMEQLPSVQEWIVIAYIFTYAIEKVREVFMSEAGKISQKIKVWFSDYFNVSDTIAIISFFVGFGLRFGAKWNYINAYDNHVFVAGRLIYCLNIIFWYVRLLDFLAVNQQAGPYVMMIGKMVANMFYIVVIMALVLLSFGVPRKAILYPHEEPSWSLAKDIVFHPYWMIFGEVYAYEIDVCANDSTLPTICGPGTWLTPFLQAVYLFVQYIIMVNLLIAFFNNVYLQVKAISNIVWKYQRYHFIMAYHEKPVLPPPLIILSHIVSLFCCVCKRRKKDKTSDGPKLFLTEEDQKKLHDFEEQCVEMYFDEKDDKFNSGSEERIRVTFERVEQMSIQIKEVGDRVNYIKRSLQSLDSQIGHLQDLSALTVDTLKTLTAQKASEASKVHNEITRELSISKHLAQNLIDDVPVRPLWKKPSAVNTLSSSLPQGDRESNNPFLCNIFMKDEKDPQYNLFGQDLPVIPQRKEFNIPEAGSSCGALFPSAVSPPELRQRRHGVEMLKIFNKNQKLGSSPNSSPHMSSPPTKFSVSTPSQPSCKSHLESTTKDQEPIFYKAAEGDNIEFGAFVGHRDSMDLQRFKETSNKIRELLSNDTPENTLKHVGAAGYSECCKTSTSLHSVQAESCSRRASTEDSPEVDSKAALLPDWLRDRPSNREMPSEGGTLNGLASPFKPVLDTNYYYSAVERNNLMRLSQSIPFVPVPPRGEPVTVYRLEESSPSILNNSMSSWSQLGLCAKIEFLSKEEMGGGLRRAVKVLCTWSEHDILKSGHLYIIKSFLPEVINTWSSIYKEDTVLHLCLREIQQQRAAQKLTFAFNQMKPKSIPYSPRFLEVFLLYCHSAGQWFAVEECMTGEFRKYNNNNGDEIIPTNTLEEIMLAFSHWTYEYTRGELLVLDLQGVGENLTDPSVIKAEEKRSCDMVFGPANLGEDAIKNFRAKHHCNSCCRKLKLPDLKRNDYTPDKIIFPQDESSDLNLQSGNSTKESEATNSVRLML
Sequence of murine TRPM7 (Q923J1 whole entry): as above

| IC50 (murine TRPM7; [3]) [µM] | dose dependence of inhibition of TRPM7-mediated fura-2 quench by Mn2+ (murine TRPM7) | Structure (SMILES) | stability of stock solution in cold storage (-20° C., 50 mM in MeOH) | stability of dried film, vacuum packed aliquots (stored at -20° C.) | inhibition of TRPM7 mediated inward current (TRPM7 [1]; 100 μM, divalent-free extracellular solutions, TRPM7-HEK293) [%] | IC50 (TRPM7 [1]; whole-cell recordings, TRPM7-HEK293 and CHOK1-TRPM7 cells, read-out: IC50, TRPM7 mediated outward current) [µM] | block of channel conductance (TRPM7 [1]; 10 μM) | block of inward TRPM7-mediated currents (TRPM7 [1]; 10 mM) | effect on Mn2+-induced fluorescence quench (murine TRPM7; FIG. 8A, 10 mM MnCl2, HEK293-TRPM7) | IC50 (murine TRPM7; read-out: IC50 of the maximal slope of the Mn2+ quench, HEK293-TRPM7, 15 min incubation before 10 mM MnCl2) [µM] | IC50 (TRPM7 [2]; 0 [Mg2+]i, outward currents at +80 mV at 500 s) [µM] | inhibition of TRPM7 currents (TRPM7 [2]; 10 μM for 300 s, +80 mV, Mg2+- and ATP-free internal solution) | TRPM7 current density after application (TRPM7 [2]; 10 μM for 300 s, +80 mV, Mg2+- and ATP-free internal solution, plateau about 130 pA/pF before) [pA/pF] | block of TRPM7 current (TRPM7 [2]; 10 μM, 700 μM free internal Mg2+, Mg-ATP omitted) | IC50 (TRPM7 [2]; 700 μM free internal Mg2+) [µM] | reversibility of inhibitory effect on washout (TRPM7 [2]; washout for another 300 s) |
| --- | --- | --- | --- | --- | --- | --- | --- | --- | --- | --- | --- | --- | --- | --- | --- | --- |
| 56 | dose dependent inhibition | NCCOB(c1ccccc1)c1ccccc1 [2-APB, 2-aminoethoxydiphenyl borate] | apparent compound degradation over the course of one week | only remained fully potent when used within a two month period | 77 | 160 ± 14 |  |  |  |  |  |  |  |  |  |  |
| 760 | dose dependent inhibition | [Cl][La]([Cl])[Cl] [La^3+, LaCl3] |  |  |  |  | ineffective | almost completely blocked | reduced Mn^2+-induced fluorescence quench |  |  |  |  |  |  |  |

| Structure (SMILES) | IC50 (murine TRPM7; [3]) [µM] | dose dependence of inhibition of TRPM7-mediated fura-2 quench by Mn2+ (murine TRPM7) | stability of stock solution in cold storage (-20° C., 50 mM in MeOH) | stability of dried film, vacuum packed aliquots (stored at -20° C.) | inhibition of TRPM7 mediated inward current (TRPM7 [1]; 100 μM, divalent-free extracellular solutions, TRPM7-HEK293) [%] | IC50 (TRPM7 [1]; whole-cell recordings, TRPM7-HEK293 and CHOK1-TRPM7 cells, read-out: IC50, TRPM7 mediated outward current) [µM] | block of channel conductance (TRPM7 [1]; 10 μM) | block of inward TRPM7-mediated currents (TRPM7 [1]; 10 mM) | effect on Mn2+-induced fluorescence quench (murine TRPM7; FIG. 8A, 10 mM MnCl2, HEK293-TRPM7) | IC50 (murine TRPM7; read-out: IC50 of the maximal slope of the Mn2+ quench, HEK293-TRPM7, 15 min incubation before 10 mM MnCl2) [µM] | IC50 (TRPM7 [2]; 0 [Mg2+]i, outward currents at +80 mV at 500 s) [µM] | inhibition of TRPM7 currents (TRPM7 [2]; 10 μM for 300 s, +80 mV, Mg2+- and ATP-free internal solution) | TRPM7 current density after application (TRPM7 [2]; 10 μM for 300 s, +80 mV, Mg2+- and ATP-free internal solution, plateau about 130 pA/pF before) [pA/pF] | block of TRPM7 current (TRPM7 [2]; 10 μM, 700 μM free internal Mg2+, Mg-ATP omitted) | IC50 (TRPM7 [2]; 700 μM free internal Mg2+) [µM] | reversibility of inhibitory effect on washout (TRPM7 [2]; washout for another 300 s) |
| --- | --- | --- | --- | --- | --- | --- | --- | --- | --- | --- | --- | --- | --- | --- | --- | --- |
| C=C1CC/C=C(\C)CC[C@@H]2C([C@H](C/C=C(\C)COC(C)=O)OC(C)=O)=CO[C@H](OC(C)=O)[C@@H]12 [waixenicin A] |  | dose-dependent manner |  |  |  |  |  |  |  | 12 | 7 | approximately 50% | 67 | completely blocked the current | 0.016 | failed to reverse its inhibitory effect |

— patent US20110230368A1, “High Throughput Assays for TRPM7” (The Queen's Medical Center, priority 2009, published 2011)
